For 21 molecules, IC50 results are on record in patent US20230131899A1, “INHIBITORS OF MICROBIALLY INDUCED AMYLOID” (Axial Therapeutics, Inc., priority 2020, published 2023).

Read-outs that look alike come from different tables or passages of the source. Some results are limits rather than exact numbers.

This assay deals with CsgA gene expression (csgBAC promoter-GFP reporter) in E. coli UTI89. The experiment in a line: In vitro live cell fluorescent reporter assay of CsgA transcription (Reporter Assay). The format is cell-based. The gist of the method: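 Chromosomal single-copy csgBAC promoter–GFP reporter in E. coli UTI89, started at OD600 0.003 in YESCA broth with compound (0.14–100 μM, 1% DMSO), 20 h at 27 °C. GFP (ex 485/em 525 nm) background-subtracted and normalized to vehicle; IC50 and X[50] from curve fits. OD600 tracked growth effects.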

Where [1] appears, read: Escherichia coli, read-out: Reporter Assay Abs IC50 (activity range), median Abs IC50 in the CsgA reporter assay, class symbol.
The mark [2] stands for this setting: Escherichia coli, read-out: Reporter Assay Abs IC50 (μM), median Abs IC50 in the CsgA reporter assay, N/A = maximum expression reduction is <50% of control.
The mark [3] stands for this setting: Escherichia coli, read-out: Reporter Assay Abs IC50, activity range, class symbol.
The mark [4] stands for this setting: read-out: Reporter Assay Abs IC50 (activity range), median Abs IC50 in the CsgA reporter assay, class symbol.
Where [5] appears, read: read-out: Reporter Assay Abs IC50, median Abs IC50 in the CsgA reporter assay, N/A = maximum expression reduction is <50% of control.

As to `O=C(O)C1CN(C[C@@H](O)CO)S(=O)(=O)c2c(-c3cccc(C(F)(F)F)c3)c(Cc3cccc4ccccc34)cc(=O)n21` (mixture of isomers) [Compound 065b, 2-((R)-2,3-dihydroxypropyl)-8-(naphthalen-1-ylmethyl)-6-oxo-9-(3-(trifluoromethyl)phenyl)-3,4-dihydro-2H,6H-pyrido[1,2-e][1,2,5]thiadiazine-4-carboxylic acid 1,1-dioxide], the IC50 runs as follows: under setting [1], greater than 10 µM; under setting [2], 18.1 µM.
For `O=C(O)C1CN(C[C@H](O)[C@@H](O)[C@H](O)[C@H](O)CO)S(=O)(=O)c2c(-c3cccc(C(F)(F)F)c3)c(Cc3cccc4ccccc34)cc(=O)n21` (mixture of isomers) [Compound 066, 8-(naphthalen-1-ylmethyl)-6-oxo-2-((2S,3R,4R,5R)-2,3,4,5,6-pentahydroxyhexyl)-9-(3-(trifluoromethyl)phenyl)-3,4-dihydro-2H,6H-pyrido[1,2-e][1,2,5]thiadiazine-4-carboxylic acid 1,1-dioxide] the same measures were greater than 10 µM and 40.2 µM.
`O=C(O)[C@@H]1CN(Cc2ccccc2)c2c(-c3cccc(C(F)(F)F)c3)c(Cc3cccc4ccccc34)c(Cl)c(=O)n21` (single isomer, unassigned) [Compound 004a]: the IC50 was 0.2 µM under setting [2] and less than 1.3 µM under setting [3].
For `O=C(O)[C@H]1CN(Cc2ccccc2)c2c(-c3cccc(C(F)(F)F)c3)c(Cc3cccc4ccccc34)c(Cl)c(=O)n21` (single isomer, unassigned) [Compound 004b], the IC50 is 0.5 µM under setting [2] and less than 1.3 µM under setting [3].
For `CCCN1CC(C(=O)O)n2c(c(-c3cccc(C(F)(F)F)c3)c(Cc3cccc4ccccc34)cc2=O)S1(=O)=O` (single isomer, unassigned) [Compound 016b, 8-(naphthalen-1-ylmethyl)-6-oxo-2-propyl-9-(3-(trifluoromethyl)phenyl)-3,4-dihydro-2H,6H-pyrido[1,2-e][1,2,5]thiadiazine-4-carboxylic acid 1,1-dioxide], the IC50 reads like this: under setting [4], 4.6 to 10 µM; under setting [5], 6.6 µM.
For `Nc1c(Cc2cccc3ccccc23)c(-c2cccc(C(F)(F)F)c2)c2n(c1=O)C(C(=O)O)CS2` (single isomer, unassigned) [Compound 020b, 6-amino-7-(naphthalen-1-ylmethyl)-5-oxo-8-(3-(trifluoromethyl)phenyl)-2,3-dihydro-5H-thiazolo[3,2-a]pyridine-3-carboxylic acid] the same measures were 4.6 to 10 µM and 5.7 µM.
With `CCCCCN1CC(C(=O)O)n2c(c(-c3cccc(C(F)(F)F)c3)c(Cc3cccc4ccccc34)cc2=O)S1(=O)=O` (single isomer, unassigned) [Compound 025a, 8-(naphthalen-1-ylmethyl)-6-oxo-2-pentyl-9-(3-(trifluoromethyl)phenyl)-3,4-dihydro-2H,6H-pyrido[1,2-e][1,2,5]thiadiazine-4-carboxylic acid 1,1-dioxide], the IC50 under setting [1] lay in the range of 1.3 to 4.5 µM and the IC50 under setting [2] is 2 µM.
For `O=C(O)C1CN(Cc2ccccc2)c2c(-c3cccc(C(F)(F)F)c3)c(Cc3cccc4ccccc34)c(Br)c(=O)n21` (stereo not drawn) [Compound 003, 1-benzyl-6-bromo-7-(naphthalen-1-ylmethyl)-5-oxo-8-(3-(trifluoromethyl)phenyl)-1,2,3,5-tetrahydroimidazo[1,2-a]pyridine-3-carboxylic acid], the IC50 under setting [2] came to 0.8 µM and the IC50 under setting [3] was less than 1.3 µM.
For `O=C(O)C1CN(Cc2ccccc2)c2c(-c3cccc(C(F)(F)F)c3)c(Cc3cccc4ccccc34)c(Cl)c(=O)n21` (stereo not drawn) [Compound 004, 1-benzyl-6-chloro-7-(naphthalen-1-ylmethyl)-5-oxo-8-(3-(trifluoromethyl)phenyl)-1,2,3,5-tetrahydroimidazo[1,2-a]pyridine-3-carboxylic acid] the same measures were 0.7 µM and less than 1.3 µM.
As to `CNC(=O)C1CN(C)S(=O)(=O)c2c(-c3cccc(C(F)(F)F)c3)c(Cc3cccc4ccccc34)cc(=O)n21` (stereo not drawn) [Compound 031, N,2-dimethyl-8-(naphthalen-1-ylmethyl)-6-oxo-9-(3-(trifluoromethyl)phenyl)-3,4-dihydro-2H,6H-pyrido[1,2-e][1,2,5]thiadiazine-4-carboxamide 1,1-dioxide], the IC50 was 1.3 to 4.5 µM under setting [1] and 4.2 µM under setting [2].
On to `CN(C)C(=O)C1CN(C)S(=O)(=O)c2c(-c3cccc(C(F)(F)F)c3)c(Cc3cccc4ccccc34)cc(=O)n21` (stereo not drawn) [Compound 032, N,N-2-trimethyl-8-(naphthalen-1-ylmethyl)-6-oxo-9-(3-(trifluoromethyl)phenyl)-3,4-dihydro-2H,6H-pyrido[1,2-e][1,2,5]thiadiazine-4-carboxamide 1,1-dioxide], for which the IC50 by setting is: under setting [1], 1.3 to 4.5 µM; under setting [2], 3.3 µM.
Taken in the same sequence, the figures for `Cn1c(=O)c2c(ncn2CCCCN2CC(C(=O)O)n3c(c(-c4cccc(C(F)(F)F)c4)c(Cc4cccc5ccccc45)cc3=O)S2(=O)=O)n(C)c1=O` (stereo not drawn) [Compound 033, 2-(4-(1,3-dimethyl-2,6-dioxo-1,2,3,6-tetrahydro-7H-purin-7-yl)butyl)-8-(naphthalen-1-ylmethyl)-6-oxo-9-(3-(trifluoromethyl)phenyl)-3,4-dihydro-2H,6H-pyrido[1,2-e][1,2,5]thiadiazine-4-carboxylic acid 1,1-dioxide] were 1.3 to 4.5 µM and 3.3 µM.
Taken in the same sequence, the figures for `Cn1c(=O)c2c(ncn2CCCCCN2CC(C(=O)O)n3c(c(-c4cccc(C(F)(F)F)c4)c(Cc4cccc5ccccc45)cc3=O)S2(=O)=O)n(C)c1=O` (stereo not drawn) [Compound 034, 2-(5-(1,3-dimethyl-2,6-dioxo-1,2,3,6-tetrahydro-7H-purin-7-yl)pentyl)-8-(naphthalen-1-ylmethyl)-6-oxo-9-(3-(trifluoromethyl)phenyl)-3,4-dihydro-2H,6H-pyrido[1,2-e][1,2,5]thiadiazine-4-carboxylic acid 1,1-dioxide] were 1.3 to 4.5 µM and 2.8 µM.
Taken in the same sequence, the figures for `Cn1c(=O)c2c(ncn2CCCCCCCN2CC(C(=O)O)n3c(c(-c4cccc(C(F)(F)F)c4)c(Cc4cccc5ccccc45)cc3=O)S2(=O)=O)n(C)c1=O` (stereo not drawn) [Compound 036] were 1.3 to 4.5 µM and 1.6 µM.
On to `CNC(=O)CCCN1CC(C(=O)O)n2c(c(-c3cccc(C(F)(F)F)c3)c(Cc3cccc4ccccc34)cc2=O)S1(=O)=O` (stereo not drawn) [Compound 037, 2-(4-(methylamino)-4-oxobutyl)-8-(naphthalen-1-ylmethyl)-6-oxo-9-(3-(trifluoromethyl)phenyl)-3,4-dihydro-2H,6H-pyrido[1,2-e][1,2,5]thiadiazine-4-carboxylic acid 1,1-dioxide], for which the IC50 runs as follows: under setting [1], greater than 10 µM; under setting [2], 23.6 µM.
`CNC(=O)CCCCN1CC(C(=O)O)n2c(c(-c3cccc(C(F)(F)F)c3)c(Cc3cccc4ccccc34)cc2=O)S1(=O)=O` (stereo not drawn) [Compound 038, 2-(5-(methylamino)-5-oxopentyl)-8-(naphthalen-1-ylmethyl)-6-oxo-9-(3-(trifluoromethyl)phenyl)-3,4-dihydro-2H,6H-pyrido[1,2-e][1,2,5]thiadiazine-4-carboxylic acid 1,1-dioxide]: the IC50 runs as follows: under setting [1], greater than 10 µM; under setting [2], 24 µM.
On to `Nc1c(Cc2ccc(N)c3ccccc23)c(-c2cccc(C(F)(F)F)c2)c2n(c1=O)C(C(=O)O)CNS2(=O)=O` (stereo not drawn) [Compound 041], for which the IC50 is greater than 10 µM under setting [1] and 20.2 µM under setting [2].
For `CC1(C(=O)O)CNS(=O)(=O)c2c(-c3cccc(C(F)(F)F)c3)c(Cc3cccc4ccccc34)cc(=O)n21` (stereo not drawn) [Compound 042, 4-methyl-8-(naphthalen-1-ylmethyl)-6-oxo-9-(3-(trifluoromethyl)phenyl)-3,4-dihydro-2H,6H-pyrido[1,2-e][1,2,5]thiadiazine-4-carboxylic acid 1,1-dioxide] the same measures were 1.3 to 4.5 µM and 3.3 µM.
Taken in the same sequence, the figures for `Cn1c(=O)c2c(nc(CCCCN3CC(C(=O)O)n4c(c(-c5cccc(C(F)(F)F)c5)c(Cc5cccc6ccccc56)cc4=O)S3(=O)=O)n2C)n(C)c1=O` (stereo not drawn) [Compound 044, 8-(naphthalen-1-ylmethyl)-6-oxo-9-(3-(trifluoromethyl)phenyl)-2-(4-(1,3,7-trimethyl-2,6-dioxo-2,3,6,7-tetrahydro-1H-purin-8-yl)butyl)-3,4-dihydro-2H,6H-pyrido[1,2-e][1,2,5]thiadiazine-4-carboxylic acid 1,1-dioxide] were 1.3 to 4.5 µM and 1.5 µM.
For `Cn1c(=O)c2c(nc(CCCCCN3CC(C(=O)O)n4c(c(-c5cccc(C(F)(F)F)c5)c(Cc5cccc6ccccc56)cc4=O)S3(=O)=O)n2C)n(C)c1=O` (stereo not drawn) [Compound 045, 8-(naphthalen-1-ylmethyl)-6-oxo-9-(3-(trifluoromethyl)phenyl)-2-(5-(1,3,7-trimethyl-2,6-dioxo-2,3,6,7-tetrahydro-1H-purin-8-yl)pentyl)-3,4-dihydro-2H,6H-pyrido[1,2-e][1,2,5]thiadiazine-4-carboxylic acid 1,1-dioxide] the same measures were 1.3 to 4.5 µM and 1.3 µM.
Turning to `Cn1c(=O)c2c(nc(CCCCCCN3CC(C(=O)O)n4c(c(-c5cccc(C(F)(F)F)c5)c(Cc5cccc6ccccc56)cc4=O)S3(=O)=O)n2C)n(C)c1=O` (stereo not drawn) [Compound 046, 8-(naphthalen-1-ylmethyl)-6-oxo-9-(3-(trifluoromethyl)phenyl)-2-(6-(1,3,7-trimethyl-2,6-dioxo-2,3,6,7-tetrahydro-1H-purin-8-yl)hexyl)-3,4-dihydro-2H,6H-pyrido[1,2-e][1,2,5]thiadiazine-4-carboxylic acid 1,1-dioxide], the IC50 is, setting by setting: under setting [1], 1.3 to 4.5 µM; under setting [2], 1.6 µM.
